According to PubChem BioAssay AID248 (DTP/NCI, 2004):
Several values for one entry are separate records, joined by “and”; a condition that tells them apart may be missing. Equal entries are not always repeated. Toxic doses and inconclusive results are not listed. Rule as the data show it: active = T/C of 150% or more; inactive = T/C below 125%.

Test system: L1210 leukemia ip in BDF1 mice, survival T/C
Test: NCI In Vivo Anticancer Drug Screen. Data for tumor model L1210 Leukemia (intraperitoneal) in B6D2F1 (BDF1) mice
Details: endpoint: mean survival time, higher = longer survival
In short: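 Tumor was transplanted into mice, which were then dosed with test compound or vehicle alone. Survival was recorded for each group, and the treated figure was expressed relative to the control figure.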

[1] = dose: 100.0 mg/kg/injection, schedule: Q04DX002 (ip), vehicle: saline with Tween-80
[2] = dose: 200.0 mg/kg/injection, schedule: Q04DX002 (ip), vehicle: saline with Tween-80
[3] = dose: 400.0 mg/kg/injection, schedule: Q04DX002 (ip), vehicle: saline with Tween-80
[4] = dose: 25.0 mg/kg/injection, schedule: Q04DX003 (ip), vehicle: Klucel (hydroxypropylcellulose) (HPC)
[5] = dose: 50.0 mg/kg/injection, schedule: Q04DX003 (ip), vehicle: Klucel (hydroxypropylcellulose) (HPC)
[6] = dose: 100.0 mg/kg/injection, schedule: Q01DX009 (ip), vehicle: Klucel (hydroxypropylcellulose) (HPC)
[7] = dose: 100.0 mg/kg/injection, schedule: Q04DX003 (ip), vehicle: Klucel (hydroxypropylcellulose) (HPC)
[8] = dose: 100.0 mg/kg/injection, schedule: Q01DX001 (ip), vehicle: Klucel (hydroxypropylcellulose) (HPC)
[9] = dose: 200.0 mg/kg/injection, schedule: Q01DX001 (ip), vehicle: Klucel (hydroxypropylcellulose) (HPC)
[10] = dose: 200.0 mg/kg/injection, schedule: Q01DX009 (ip), vehicle: Klucel (hydroxypropylcellulose) (HPC)
[11] = dose: 400.0 mg/kg/injection, schedule: Q01DX009 (ip), vehicle: Klucel (hydroxypropylcellulose) (HPC)
[12] = dose: 100.0 mg/kg/injection, schedule: Q04DX003 (ip), vehicle: saline with Tween-80
[13] = dose: 50.0 mg/kg/injection, schedule: Q01DX001 (ip), vehicle: carboxymethylcellulose (CMC)
[14] = dose: 100.0 mg/kg/injection, schedule: Q01DX001 (ip), vehicle: carboxymethylcellulose (CMC)
[15] = dose: 200.0 mg/kg/injection, schedule: Q01DX001 (ip), vehicle: carboxymethylcellulose (CMC)
[16] = dose: 50.0 mg/kg/injection, schedule: Q01DX001 (ip), vehicle: saline
[17] = dose: 100.0 mg/kg/injection, schedule: Q01DX001 (ip), vehicle: saline
[18] = dose: 200.0 mg/kg/injection, schedule: Q01DX001 (ip), vehicle: saline
[19] = dose: 400.0 mg/kg/injection, schedule: Q01DX001 (ip), vehicle: saline
[20] = dose: 200.0 mg/kg/injection, schedule: Q04DX003 (ip), vehicle: saline with Tween-80
[21] = dose: 100.0 mg/kg/injection, schedule: Q04DX002 (ip), vehicle: Klucel (hydroxypropylcellulose) (HPC)
[22] = dose: 200.0 mg/kg/injection, schedule: Q04DX002 (ip), vehicle: Klucel (hydroxypropylcellulose) (HPC)

Measured: T/C

O=C(O)CCC1CCC(=O)C1 (stereo unspecified)
inactive: dose: 50.0 mg/kg/injection, schedule: Q04DX002 (ip), vehicle: saline with Tween-80 102 % of control | [1] 106 % of control | [2] 98 % of control | [3] 95 % of control

O=C(O)CC(C(=O)O)C1CCCC1 (stereo unspecified)
inactive: dose: 75.0 mg/kg/injection, schedule: Q01DX001 (ip), vehicle: saline 102 % of control | dose: 150.0 mg/kg/injection, schedule: Q01DX001 (ip), vehicle: saline 94 % of control | dose: 300.0 mg/kg/injection, schedule: Q01DX001 (ip), vehicle: saline 92 % of control

CCOC(=O)c1ccc(NCC(C)(C)[N+](=O)[O-])cc1
inactive: dose: 100.0 mg/kg/injection, schedule: Q01DX009 (ip), vehicle: saline 102 % of control | dose: 100.0 mg/kg/injection, schedule: Q04DX003 (ip), vehicle: saline 95 % of control | dose: 200.0 mg/kg/injection, schedule: Q01DX009 (ip), vehicle: saline 105 % of control | dose: 200.0 mg/kg/injection, schedule: Q04DX003 (ip), vehicle: saline 107 % of control | dose: 400.0 mg/kg/injection, schedule: Q01DX009 (ip), vehicle: saline 96 % of control and 105 % of control | dose: 400.0 mg/kg/injection, schedule: Q04DX003 (ip), vehicle: saline 91 % of control

CCN(CC)CCCC#CCN1CCCCC1
inactive: dose: 25.0 mg/kg/injection, schedule: Q01DX009 (ip), vehicle: Klucel (hydroxypropylcellulose) (HPC) 100 % of control | [4] 103 % of control | dose: 50.0 mg/kg/injection, schedule: Q01DX009 (ip), vehicle: Klucel (hydroxypropylcellulose) (HPC) 101 % of control | [5] 106 % of control | [6] 102 % of control | [7] 103 % of control

O=C(c1ccccc1)C12CC3CC(CC(C3)C1)C2
inactive: dose: 75.0 mg/kg/injection, schedule: Q04DX003 (ip), vehicle: Klucel (hydroxypropylcellulose) (HPC) 93 % of control | [8] 96 % of control | dose: 150.0 mg/kg/injection, schedule: Q04DX003 (ip), vehicle: Klucel (hydroxypropylcellulose) (HPC) 93 % of control | [9] 100 % of control | dose: 300.0 mg/kg/injection, schedule: Q04DX003 (ip), vehicle: Klucel (hydroxypropylcellulose) (HPC) 106 % of control | dose: 400.0 mg/kg/injection, schedule: Q01DX001 (ip), vehicle: Klucel (hydroxypropylcellulose) (HPC) 105 % of control

CC(=O)N1CN(C(C)=O)CN(C(C)=O)C1
inactive: [6] 95 % of control | [1] 91 % of control | [10] 92 % of control | [2] 102 % of control | [11] 97 % of control | [3] 95 % of control

CC1(C)CC(N=Cc2ccccc2O)CC(C)(C)N1O.CC1(C)CC(N=Cc2ccccc2O)CC(C)(C)N1O.[Ni]
inactive: [12] 100 % of control

[N-]=[N+]=NCCC[CH2][Pb]([c]1ccccc1)([c]1ccccc1)[c]1ccccc1
inactive: [13] 96 % of control | [14] 102 % of control | [15] 100 % of control | dose: 400.0 mg/kg/injection, schedule: Q01DX001 (ip), vehicle: carboxymethylcellulose (CMC) 96 % of control

CCOC(=O)c1cnc(SC)nc1Nc1cccc(C(F)(F)F)c1
inactive: dose: 50.0 mg/kg/injection, schedule: Q01DX001 (ip), vehicle: gum acacia 96 % of control | dose: 87.0 mg/kg/injection, schedule: Q01DX009 (ip), vehicle: gum acacia 100 % of control | dose: 100.0 mg/kg/injection, schedule: Q01DX001 (ip), vehicle: gum acacia 89 % of control and 90 % of control | dose: 175.0 mg/kg/injection, schedule: Q01DX009 (ip), vehicle: gum acacia 99 % of control | dose: 200.0 mg/kg/injection, schedule: Q01DX001 (ip), vehicle: gum acacia 89 % of control | dose: 350.0 mg/kg/injection, schedule: Q01DX009 (ip), vehicle: gum acacia 94 % of control | dose: 400.0 mg/kg/injection, schedule: Q01DX001 (ip), vehicle: gum acacia 99 % of control

COc1cc(C)c2c([N+](=O)[O-])cc([N+](=O)[O-])c(OC)c2n1
inactive: dose: 75.0 mg/kg/injection, schedule: Q01DX009 (ip), vehicle: Klucel (hydroxypropylcellulose) (HPC) 98 % of control | [7] 106 % of control | dose: 150.0 mg/kg/injection, schedule: Q01DX009 (ip), vehicle: Klucel (hydroxypropylcellulose) (HPC) 101 % of control | dose: 200.0 mg/kg/injection, schedule: Q04DX003 (ip), vehicle: Klucel (hydroxypropylcellulose) (HPC) 93 % of control | dose: 300.0 mg/kg/injection, schedule: Q01DX009 (ip), vehicle: Klucel (hydroxypropylcellulose) (HPC) 95 % of control | dose: 400.0 mg/kg/injection, schedule: Q04DX003 (ip), vehicle: Klucel (hydroxypropylcellulose) (HPC) 103 % of control

CC(C)C(CCCC(=O)O)C(=O)O (stereo unspecified)
inactive: [13] 96 % of control | [14] 96 % of control | [15] 96 % of control

O=C1CCc2cc(Br)ccc2O1
inactive: [16] 92 % of control | [17] 103 % of control | [18] 100 % of control | [19] 100 % of control

O=C(O)CCCCCCCCC1CC(F)(F)C(F)(F)S1 (stereo unspecified)
inactive: [12] 92 % of control | [20] 96 % of control | dose: 400.0 mg/kg/injection, schedule: Q04DX003 (ip), vehicle: saline with Tween-80 92 % of control

COc1ccc(C(=O)Nc2ccccc2)cc1NC(=S)Nc1ccccc1
inactive: [21] 95 % of control | [22] 98 % of control

Cc1ccc(NC(=S)N(C)C)cc1C
inactive: [6] 95 % of control | [10] 101 % of control | [11] 104 % of control

Nc1ccc(C(=O)N/N=C\c2cccc3ccccc23)cc1
inactive: [21] 97 % of control | [22] 90 % of control | dose: 400.0 mg/kg/injection, schedule: Q04DX002 (ip), vehicle: Klucel (hydroxypropylcellulose) (HPC) 93 % of control

Oc1cccc2oc(=S)[nH]c12
inactive: [4] 106 % of control | [5] 92 % of control | [7] 103 % of control | [12] 95 % of control and 100 % of control | [20] 110 % of control

CCCC[S][Pb]([c]1ccccc1)([c]1ccccc1)[c]1ccccc1
inactive: [8] 101 % of control | [9] 106 % of control

O=[N+]([O-])c1ccc(OCc2cc(S(=O)(=O)F)ccc2Cl)c(Cl)c1
inactive: dose: 75.0 mg/kg/injection, schedule: Q04DX003 (ip), vehicle: gum acacia 100 % of control | dose: 150.0 mg/kg/injection, schedule: Q04DX003 (ip), vehicle: gum acacia 96 % of control | dose: 300.0 mg/kg/injection, schedule: Q04DX003 (ip), vehicle: gum acacia 91 % of control

CC(C)(C)C1CCC2(CC1)CO2 (stereo unspecified)
inactive: [17] 98 % of control

O=C(Nc1ncc([N+](=O)[O-])s1)c1ccc([N+](=O)[O-])cc1Cl
inactive: dose: 5.0 mg/kg/injection, schedule: Q01DX009 (ip), vehicle: Klucel (hydroxypropylcellulose) (HPC) 94 % of control | dose: 5.0 mg/kg/injection, schedule: Q04DX003 (ip), vehicle: Klucel (hydroxypropylcellulose) (HPC) 100 % of control | dose: 10.0 mg/kg/injection, schedule: Q01DX009 (ip), vehicle: Klucel (hydroxypropylcellulose) (HPC) 92 % of control | dose: 10.0 mg/kg/injection, schedule: Q04DX003 (ip), vehicle: Klucel (hydroxypropylcellulose) (HPC) 95 % of control | dose: 20.0 mg/kg/injection, schedule: Q01DX009 (ip), vehicle: Klucel (hydroxypropylcellulose) (HPC) 99 % of control | dose: 20.0 mg/kg/injection, schedule: Q04DX003 (ip), vehicle: Klucel (hydroxypropylcellulose) (HPC) 94 % of control

CCCCCCCC(N)C(=O)O (stereo unspecified)
inactive: dose: 100.0 mg/kg/injection, schedule: Q04DX002 (ip), vehicle: gum acacia 95 % of control | dose: 200.0 mg/kg/injection, schedule: Q04DX002 (ip), vehicle: gum acacia 104 % of control | dose: 400.0 mg/kg/injection, schedule: Q04DX002 (ip), vehicle: gum acacia 88 % of control

CCOC(=O)n1cnc2nc(N)nc(Cl)c21
inactive: [16] 103 % of control | [17] 105 % of control | [18] 100 % of control | [19] 122 % of control
